# Data taken from patent US12364668B2, “Treatment of opioid use disorder, opioid withdrawal symptoms, and chronic pain” (THE REGENTS OF THE UNIVERSITY OF CALIFORNIA, priority 2017, dated 2025).
# Assays:
# [1] = test system: Chronic Constriction Injury model of chronic neuropathic pain; assay: Von Frey pain threshold in the Chronic Constriction Injury (sciatic nerve ligation) model; details: CCI rats
# Source text: Male Sprague Dawley rats underwent baseline measurement of pain threshold via Von Frey testing according to the study schema in FIG. 4. The following day, rats underwent surgical ligation of the sciatic nerve using the Chronic Constriction Injury model of chronic neuropathic pain. After 7 days to allow the development of chronic neuropathic pain, rats underwent repeat Von Frey testing to determine pain threshold and started oral treatment with CBD or saline (Table 2). After 7 days of CBD or saline, rats underwent pre-dosing pain threshold determination via Von Frey testing and then received either standard dose BUP, low dose BUP, CBD alone or low dose BUP plus CBD followed by repeat post-dose pain threshold determination via Von Frey testing (Table 3).
# [2] = molecular target: Cytochrome P450 3A4 (CYP 3A4) (Homo sapiens, UniProt P08684); details: in vitro study (Stout and Cimino 2014); cited from earlier work
# Chain of Cytochrome P450 3A4 (CYP 3A4) (P08684 whole entry, species assumed): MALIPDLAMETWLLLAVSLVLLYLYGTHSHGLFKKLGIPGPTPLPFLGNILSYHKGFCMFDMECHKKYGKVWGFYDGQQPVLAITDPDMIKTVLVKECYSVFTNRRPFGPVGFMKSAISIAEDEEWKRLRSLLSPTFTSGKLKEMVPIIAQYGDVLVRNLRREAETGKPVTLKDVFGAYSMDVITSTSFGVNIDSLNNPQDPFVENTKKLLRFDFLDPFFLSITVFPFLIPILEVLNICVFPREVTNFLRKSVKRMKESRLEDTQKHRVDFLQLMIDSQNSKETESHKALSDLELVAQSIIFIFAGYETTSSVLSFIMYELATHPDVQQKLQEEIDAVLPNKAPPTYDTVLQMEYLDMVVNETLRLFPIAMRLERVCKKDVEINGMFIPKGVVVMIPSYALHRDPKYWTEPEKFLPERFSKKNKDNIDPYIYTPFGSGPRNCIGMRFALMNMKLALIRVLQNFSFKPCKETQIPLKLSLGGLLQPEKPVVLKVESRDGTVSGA
# [3] = rats (Graham and Li, 1973); cited from earlier work
compound,measurement,setting,value
"C=C(C)[C@@H]1CCC(C)=C[C@H]1c1c(O)cc(CCCCC)cc1O [CBD, cannabidiol]","Mean pain threshold (g in Von Frey Testing), Day 14-1 hour Post Dose","[1]; CBD alone 7 mg/kg PO days 7-14, saline IV on day 14",5.25 g
same,Pain threshold on day 14 compared to no BUP (Group 1),[1]; CBD alone 7 mg/kg PO days 7-14,did not significantly increase
same,"Mean pain threshold (g in Von Frey Testing), Day 14 Pre-Dose","[1]; CBD alone group, after 7 days of CBD 7 mg/kg PO, before day 14 dosing",5.50 g
same,Inhibition of CYP 3A4,[2],inhibits
same,Effect on respiratory rate,[3],did not reduce
